Experimental findings from patent US20120232062A1, “AZAINDAZOLES TO TREAT FLAVIVIRIDAE VIRUS INFECTION” (EIGER BIOPHARMACEUTICALS, INC., priority 2009, published 2012) are described below.

What is called bioavailability is dose-corrected exposure relative to a reference, in per cent. High values mean much systemic uptake, low ones little systemic uptake.

Read-outs that look alike come from different tables or passages of the source.

One data set deals with T1, CYP 2D6 (Homo sapiens, UniProt P10635).
T1 construct: For human liver microsome solution, a stock solution (20 mg/mL (4×final)) is used; from tissue; host or cells: human liver microsomes
T1 sequence (P10635 whole entry): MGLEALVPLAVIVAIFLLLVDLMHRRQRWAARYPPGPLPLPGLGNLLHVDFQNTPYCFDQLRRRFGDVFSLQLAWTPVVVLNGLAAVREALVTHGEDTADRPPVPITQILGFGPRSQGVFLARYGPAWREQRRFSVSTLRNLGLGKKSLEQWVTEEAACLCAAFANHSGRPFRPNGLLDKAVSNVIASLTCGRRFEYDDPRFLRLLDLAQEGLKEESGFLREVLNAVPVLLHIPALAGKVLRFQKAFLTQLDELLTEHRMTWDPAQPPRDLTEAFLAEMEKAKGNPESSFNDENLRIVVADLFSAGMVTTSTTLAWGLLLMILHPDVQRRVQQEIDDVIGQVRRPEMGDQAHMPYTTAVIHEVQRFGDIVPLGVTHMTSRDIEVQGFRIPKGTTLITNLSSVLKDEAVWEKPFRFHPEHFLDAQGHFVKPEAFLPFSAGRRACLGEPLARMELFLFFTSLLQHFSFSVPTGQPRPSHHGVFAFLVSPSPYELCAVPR
The data set can be described thus: CYP inhibition testing, CYP 2D6. It counts as in vitro ADME. Conditions: human liver microsomes; >75 = low level of inhibition. The protocol: (§1) Select compounds are tested for CYP inhibition against five different CYP enzymes: CYP 1A2, CYP 2C9, CYP 2C19, CYP 2D6, CYP 3A4. Individual CYP enzymes are incubated with corresponding substrates with no inhibitor (negative control). Individual CYP enzymes are then incubated with corresponding substrates in the presence of test compound. […] Values of 70>v, w, x, y, z>30 indicate moderate level of inhibition of the corresponding enzyme.
(§2) The following reagents are used: Sodium Phosphate, monobasic; Sodium Phosphate, dibasic; β-Nicotinamide Adenine Dinucleotide Phosphate-Reduced (NADPH), Roche; Milli-Q Water; 0.1 M Potassium phosphate buffer (K-buffer), pH 7.4. The following stock solutions are used. Stock A (136.5 g of monobasic potassium phosphate in 1 L of Milli-Q water (1.0 M)). Stock B (174.2 g of dibasic potassium phosphate in 1 L of Milli-Q water (1.0 M)). 40.5 mL of Stock B is mixed with 9.5 mL of Stock A, and the total volume brought near 500 mL with Milli-Q water to give 0.1 M potassium phosphate buffer. The buffer is titrated with KOH or H3PO4 to pH 7.4. To prepare a cofactor buffer (4×, 8 mM NADPH), 66.7 mg of NADPH tetrasodium salt is dissolved in 10 mL of K-buffer. For human liver microsome solution, a stock solution (20 mg/mL (4×final)) is used.
(§3) The following Positive control stock solutions are prepared: 0.3 mM α-Naphthoflavone (MW: 272.3, 0.0817 mg of α-Naphthoflavone in 1 mL DMSO), 10 mM Sulfaphenazole (MW: 314.4, 3.14 mg of sulfaphenazole in 1 mL DMSO) 100 mM Omeprazole (MW: 345.4, 34.54 mg of omeprazole in 1 mL DMSO), 2.5 mM Quinidine (MW: 324, 0.81 mg of quinidine in 1 mL DMSO), and 2.5 mM Ketoconazole (MW: 531.4, 1.33 mg of ketoconazole in 1 mL DMSO).
(§4) The following substrate stock solutions are prepared: 6 mM Phenacetin (MW: 179.22, 1.075 mg of phenacetin in 1 mL can), 10 mM Diclofenac (MW: 318.83, 3.18 mg of Diclofenac in 1 ml H2O), 35 mM S-Mephenyloin (MW: 218.25, 7.64 mg of s-mephenyloin in 1 mL ACN 10 mM Bufuralol (MW: 297.82, 2.98 mg of Bufuralol in 1 ml H2O), 1 mM Midazolam (MW: 325.77, 0.326 mg of midazolam in 1 mL can), and 10 mM Testosterone (MW: 288.42, 2.88 mg of Testosterone in 1 ml ACN.
(§5) Test compounds and reference compounds (positive control) are prepared in 0.2 mg/ml liver microsome solution. A 0.2 mg/ml liver microsome solution (2×final) is prepared from stock solution by adding 10 μL microsome stock solutions (20 mg/ml) in 990 μL K-buffer. 8 μL of 10 mM test compound stock solution (in DMSO or other solvent at various concentrations) is diluted with 12 μL ACN to make 4 mM solutions. 1:3 serial dilutions are performed using DMSO/ACN (40:60) from 4 mM solution further down seven concentration points (400×final): 4 mM, 1.33 mM, 0.44 mM, 0.148 mM, […], 0.0165 mM, 0.00549 mM, 0 mM. […]
(Liver microsomes are a subcellular fraction often used to study metabolism.)

In the next data set the target is T2, CYP 3A4 (Homo sapiens, UniProt P08684).
T2 construct: For human liver microsome solution, a stock solution (20 mg/mL (4×final)) is used; from tissue; host or cells: human liver microsomes
T2 sequence (P08684 whole entry): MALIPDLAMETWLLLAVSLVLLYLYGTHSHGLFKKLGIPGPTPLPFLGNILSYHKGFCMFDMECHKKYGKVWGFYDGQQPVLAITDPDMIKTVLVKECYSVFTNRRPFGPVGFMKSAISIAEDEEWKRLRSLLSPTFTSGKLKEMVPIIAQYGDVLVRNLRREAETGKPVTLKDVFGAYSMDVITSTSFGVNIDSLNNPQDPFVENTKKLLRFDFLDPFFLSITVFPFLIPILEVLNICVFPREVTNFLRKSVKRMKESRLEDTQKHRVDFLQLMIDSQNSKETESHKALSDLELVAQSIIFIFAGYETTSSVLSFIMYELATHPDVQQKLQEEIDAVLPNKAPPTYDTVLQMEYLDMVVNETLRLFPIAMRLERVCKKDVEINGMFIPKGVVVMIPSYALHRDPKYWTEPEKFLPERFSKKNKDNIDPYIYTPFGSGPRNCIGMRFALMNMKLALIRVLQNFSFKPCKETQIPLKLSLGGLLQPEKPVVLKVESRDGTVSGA
The data set can be described thus: CYP inhibition testing, CYP 3A4. Conditions: human liver microsomes; >75 = low level of inhibition. It counts as in vitro ADME. The protocol:
as §1, §2, §3, §4, §5

For another data set, the target named is T3, CYP 2C9 (Homo sapiens, UniProt P11712).
T3 construct: For human liver microsome solution, a stock solution (20 mg/mL (4×final)) is used; from tissue; host or cells: human liver microsomes
T3 sequence (P11712 whole entry): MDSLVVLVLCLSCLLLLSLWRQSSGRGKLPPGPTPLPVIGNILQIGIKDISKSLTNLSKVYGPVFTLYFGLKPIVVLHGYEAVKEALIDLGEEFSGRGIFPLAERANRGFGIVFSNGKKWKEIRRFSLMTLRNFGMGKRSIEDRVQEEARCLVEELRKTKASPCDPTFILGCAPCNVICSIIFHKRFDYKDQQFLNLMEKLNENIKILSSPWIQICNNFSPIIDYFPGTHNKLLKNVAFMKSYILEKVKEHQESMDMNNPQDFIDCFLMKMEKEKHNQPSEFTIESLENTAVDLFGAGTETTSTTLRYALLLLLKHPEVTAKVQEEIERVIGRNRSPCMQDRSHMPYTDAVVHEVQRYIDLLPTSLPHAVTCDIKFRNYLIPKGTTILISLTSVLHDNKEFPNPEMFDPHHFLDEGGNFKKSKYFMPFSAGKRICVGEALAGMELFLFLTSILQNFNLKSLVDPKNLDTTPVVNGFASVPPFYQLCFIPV
The data set can be described thus: CYP inhibition testing, CYP 2C9. It counts as in vitro ADME. Conditions: human liver microsomes; >75 = low level of inhibition. On the procedure:
as §1, §2, §3, §4, §5

A short description of data set [1]: In vivo rat pharmacokinetic studies. Conditions: for concentration in liver, fold above the EC50: rat liver after PO 20 or 40 mpk, for qd dosing. The text has this:
In vivo rat pharmacokinetic studies are designed to measure bioavailability, tissue distribution and metabolite identification in rats after intravenous (IV) and oral (PO) dosing. A full PK study typically includes two study arms (IV and PO) and takes serial blood samples from multiple animals per compound. The assay as described in this example was developed by BioDuro, a corporation of China with its principal office located at Building E, No. 29 Life Science Park Road, Changping District, Beijing, 102206, P.R. China.
Each compound was singly dosed both IV (1 mpk (mg/kg) to rats 1-3) and PO (20 or 40 mpk to rats 4-18), followed by blood draws and liver concentration studies (for PO dosed rats) from each animal at each time point.

[2] abbreviates: 40 mg/kg, rat, PO 40 mpk, liver/plasma, read-out: L/P Ratio.
The mark [3] stands for this setting: liver, 40 mg/kg, rat, PO 40 mpk, read-out: Liver.
The mark [4] stands for this setting: plasma, 40 mg/kg, rat, PO 40 mpk, read-out: Plasma.
[5] abbreviates: 20 mg/kg, rat, PO 20 mpk, liver/plasma, read-out: L/P Ratio.
The mark [6] stands for this setting: liver, 20 mg/kg, rat, PO 20 mpk, read-out: Liver.
[7] abbreviates: plasma, 20 mg/kg, rat, PO 20 mpk vs IV 1 mpk.
[8] abbreviates: plasma, 20 mg/kg, rat, PO 20 mpk, read-out: Plasma.

Turning to `Cn1nc(C(=O)NC2CCNCC2)c2ccc(N3CCCCCC3)nc21.O=C(O)C(F)(F)F.O=C(O)C(F)(F)F` [compound 697], the “CYP (% negative controls) 2D6” value at CYP 2D6 is on record as 80 % negative controls. For the same compound, on CYP 3A4, the “CYP (% negative controls) 3A4” value was determined as 110 % negative controls. In addition, the “CYP (% negative controls) 2C9” value at CYP 2C9 is reported as 92 % negative controls.
For the compound `Cn1nc(C(=O)NC2CCN(CCN3CCCC3)CC2)c2ccc(N3CCCCCC3)nc21` [EBP1597], in data set [1] (setting [2]), the Kp at 0.25 h was determined as 1670, the Kp at 4 h turned out to be 717 and the Kp at 8 h was found to be 582. Also, the Kp at 12 h in data set [1] (40 mg/kg, rat, PO 40 mpk, 12 h, liver/plasma, read-out: L/P Ratio) came to 527. In data set [1] (setting [3]), the concentration at 0.25 h is 2620 ng/g, the concentration at 4 h came out at 8120 ng/g and the concentration at 8 h worked out at 1500 ng/g. The concentration at 12 h in data set [1] (liver, 40 mg/kg, rat, PO 40 mpk, 12 h, read-out: Liver) is 1030 ng/g. The liver concentration range at 12 h in data set [1] (liver, 40 mg/kg, rat, PO 40 mpk, over the period given, read-out: Liver Conc (range)) was 2 to 18 µM. The compound also came in with a bioavailability in data set [1] (plasma, 40 mg/kg, rat, PO 40 mpk vs IV 1 mpk) of 9%. In data set [1] (setting [4]), the concentration at 0.25 h stood at 1.6 ng/mL, the concentration at 4 h turned out to be 10.3 ng/mL and the concentration at 8 h was 2.6 ng/mL. For the same compound, the concentration at 12 h in data set [1] (plasma, 40 mg/kg, rat, PO 40 mpk, 12 h, read-out: Plasma) came to 2.5 ng/mL. Besides, the “concentration in liver, fold above the EC50” value in data set [1] was 2-18 fold. Also, the “Liver Conc (range)” value in data set [1] (rat, PO 40 mpk, over the period given) lay within 2 to 18 µM.
As for `CC(C)N1CCC(NC(=O)c2nn(C)c3nc(N4CCCCCC4)ccc23)CC1` [EBP1604], in data set [1] (setting [5]), the Kp at 0.25 h came out at 618 and the Kp at 1 h is 275. Besides, in data set [1] (setting [6]), the concentration at 0.25 h is 915 ng/g, the concentration at 1 h is 4870 ng/g, the concentration at 4 h worked out at 203 ng/g and the concentration at 8 h came out at 43 ng/g. The concentration at 24 h in data set [1] (setting [6]) came out at 0 ng/g. This compound also returned a bioavailability in data set [1] (setting [7]) of 2%. For the same compound, in data set [1] (setting [8]), the concentration at 0.25 h was 0.8 ng/mL, the concentration at 1 h was 17.9 ng/mL, the concentration at 4 h was found to be 0 ng/mL and the concentration at 8 h came out at 0 ng/mL. Also, the concentration at 24 h in data set [1] (setting [8]) stood at 0 ng/mL. In addition, the “concentration in liver, fold above the EC50” value in data set [1] is recorded as “up to 6 fold”. The “Liver Conc (range)” value in data set [1] (rat, PO 20 mpk, over the period given, 20 mg/kg) was 2 to 12 µM.
In the case of `Cn1nc(CCCN2CCCC2)c2ccc(N3CCCCCCC3)nc21` [compound 1171], at CYP 2D6, the “CYP (% negative controls) 2D6” value was 62 % negative controls. Moreover, the “CYP (% negative controls) 3A4” value on CYP 3A4 amounted to 67 % negative controls. In addition, the “CYP (% negative controls) 2C9” value on CYP 2C9 was determined as 141 % negative controls.
For the compound `CCN1CCC(NC(=O)c2nn(C)c3nc(N4CCCCCC4)ccc23)CC1` [EBP1595], in data set [1] (setting [5]), the Kp at 0.25 h turned out to be 652, the Kp at 1 h came out at 172 and the Kp at 4 h came out at 67. In data set [1] (setting [6]), the concentration at 0.25 h was determined as 1900 ng/g, the concentration at 1 h came to 12400 ng/g, the concentration at 4 h was found to be 1400 ng/g and the concentration at 8 h came to 132 ng/g. Besides, the concentration at 24 h in data set [1] (setting [6]) came to 0 ng/g. In data set [1] (setting [7]), this compound came in with a bioavailability of 9%. In data set [1] (setting [8]), the concentration at 0.25 h was determined as 1.6 ng/mL, the concentration at 1 h was determined as 96.4 ng/mL, the concentration at 4 h stood at 14 ng/mL and the concentration at 8 h is 0 ng/mL. The concentration at 24 h in data set [1] (setting [8]) was 0 ng/mL. Moreover, the “concentration in liver, fold above the EC50” value in data set [1] is 2-32 fold.
Consider `Cn1nc(C(=O)NC2CCN(CCN3CCCCC3)CC2)c2ccc(N3CCCCCC3)nc21` [EBP1047], for which, in data set [1] (setting [5]), the Kp at 0.25 h was found to be 78.3, the Kp at 1 h came out at 558, the Kp at 4 h is 261 and the Kp at 8 h was found to be 182. Moreover, in data set [1] (setting [6]), the concentration at 0.25 h is 382 ng/g, the concentration at 1 h was 14000 ng/g, the concentration at 4 h came out at 2670 ng/g and the concentration at 8 h came to 563 ng/g. The concentration at 24 h in data set [1] (setting [6]) worked out at 5.35 ng/g. The compound also came in with a bioavailability in data set [1] (setting [7]) of 9%. Also, in data set [1] (setting [8]), the concentration at 0.25 h was 5.1 ng/mL, the concentration at 1 h came out at 24.1 ng/mL, the concentration at 4 h is 10.4 ng/mL and the concentration at 8 h worked out at 2.9 ng/mL. For the same compound, the concentration at 24 h in data set [1] (setting [8]) came to 0 ng/mL. Further, the “concentration in liver, fold above the EC50” value in data set [1] was 2-60 fold. Moreover, in data set [1] (rat, PO 20 mpk, over the period given), the “Liver Conc (range)” value was 1 to 30 µM.
As for `Cn1nc(C(=O)NC2CCN(CCN3CCCCC3)CC2)c2ccc(N3CCCCCC3)nc21` [compound 1047], at CYP 2D6, the “CYP (% negative controls) 2D6” value was 72 % negative controls. On CYP 3A4, the “CYP (% negative controls) 3A4” value amounted to 113 % negative controls. Also, at CYP 2C9, the “CYP (% negative controls) 2C9” value amounted to 91 % negative controls.
The corresponding values for `CCC(CC)Oc1ccc2c(C(=O)NC3CCNCC3)n[nH]c2n1` [compound 726] are 72 % negative controls, 60 % negative controls and 84 % negative controls.
